Where a chain is given by its changes, count along the chain named.
Assays:
[1] = system: U87MG pLVX-IDH2 R140Q-neo cells; test: U87MG pLVX-IDH2 R140Q-neo cell based assay, 2-HG in media by LC-MS at 48 hours; conditions: Homo sapiens, U-87 MG
Procedure, shortened: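 2-HG secreted into the medium was measured by LC-MS after 48 h of compound treatment (0.2% DMSO final) of U87MG pLVX-IDH2 R140Q-neo cells in DMEM/10% FBS. The same wells were assayed at 72 h by CellTiter-Glo luminescence for effects on growth.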

[2] = target: T1, IDH2 R140Q (Homo sapiens, UniProt P48735, R140Q); test: IDH2 R140Q enzymatic assay (cofactor depletion, similar format); format: biochemical; conditions: read-out: Enz R140Q
T1 sequence (P48735 40-452 R140Q): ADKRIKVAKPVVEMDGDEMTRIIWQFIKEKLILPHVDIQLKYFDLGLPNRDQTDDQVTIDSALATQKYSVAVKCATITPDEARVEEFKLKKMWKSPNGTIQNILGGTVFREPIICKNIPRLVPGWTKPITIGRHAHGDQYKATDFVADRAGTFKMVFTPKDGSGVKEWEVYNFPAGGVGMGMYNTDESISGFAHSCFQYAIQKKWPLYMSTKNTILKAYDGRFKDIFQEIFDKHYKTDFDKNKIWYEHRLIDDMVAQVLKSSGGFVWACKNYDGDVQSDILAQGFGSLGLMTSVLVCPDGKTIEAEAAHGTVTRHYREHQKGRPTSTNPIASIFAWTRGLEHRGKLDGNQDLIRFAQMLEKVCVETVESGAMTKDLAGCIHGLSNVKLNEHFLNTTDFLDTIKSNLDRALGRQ

[3] = target: T2, IDH2 R172K (Homo sapiens, UniProt P48735, R172K); test: IDH2 R172K enzymatic assay (NADPH cofactor depletion, diaphorase/resazurin readout); format: biochemical; conditions: read-out: Enz R172K
T2 sequence (P48735 40-452 R172K): T1 sequence (P48735 40-452 R140Q) with Q101R, R133K
Procedure, shortened: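 Cofactor depletion format: enzyme + compound 1 h RT; add substrate mix (50 μM NADPH, 6.3 mM α-KG); react 1 h RT; quench with stop mix (36 μg/ml diaphorase, 60 μM resazurin); read resorufin fluorescence as residual NADPH.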

| IC50 [1] | IC50 [2] | IC50 [3] | SMILES |
| --- | --- | --- | --- |
| < 100 nM | 100 to 1000 nM | 100 to 1000 nM | CC(F)(F)c1cccc(-c2nc(NCC3CC3)nc(Nc3cccc(S(C)(=O)=O)c3)n2)n1 [Compound 611, N2-(cyclopropylmethyl)-6-(6-(1,1-difluoroethyl)pyridin-2-yl)-N4-(3-(methylsulfonyl)phenyl)-1,3,5-triazine-2,4-diamine] |
| < 100 nM | 100 to 1000 nM | < 100 nM | CC(C)Nc1nc(Nc2cc(F)cc(F)c2)nc(-c2nc(N)ccc2F)n1 [Compound 477, 6-(6-amino-3-fluoropyridin-2-yl)-N2-(3,5-difluorophenyl)-N4-isopropyl-1,3,5-triazine-2,4-diamine] |
| < 100 nM | < 100 nM | 100 to 1000 nM | CC(C)Nc1nc(Nc2cccc(C#N)c2)nc(-c2ccccc2)n1 [Compound 130] |
| < 100 nM | 100 to 1000 nM | < 100 nM | CC(Nc1nc(Nc2ccnc(C(F)(F)F)c2)nc(-c2cccc(N)n2)n1)C(F)(F)F (stereo not drawn) [Compound 694, 6-(6-aminopyridin-2-yl)-N2-(2-(trifluoromethyl)pyridin-4-yl)-N4-(1,1,1-trifluoropropan-2-yl)-1,3,5-triazine-2,4-diamine] |
| < 100 nM | 100 to 1000 nM | < 100 nM | Nc1ccnc(-c2nc(NCC3CC3)nc(Nc3cc(F)cc(F)c3)n2)n1 [Compound 478, 6-(4-Amino-pyrimidin-2-yl)-N-cyclopropylmethyl-N′-(3,5-difluoro-phenyl)-[1,3,5]triazine-2,4-diamine] |
| < 100 nM | < 100 nM | 100 to 1000 nM | c1ccc(Nc2nc(NC3CCOCC3)nc(-c3ccccc3)n2)cc1 [Compound 168] |
| < 100 nM | 100 to 1000 nM | < 100 nM | CC(C)CNc1nc(Nc2ccnc(C(F)(F)F)c2)nc(-c2cccc(N)n2)n1 [Compound 690, 6-(6-aminopyridin-2-yl)-N2-isobutyl-N4-(2-(trifluoromethyl)pyridin-4-yl)-1,3,5-triazine-2,4-diamine] |
| < 100 nM | 100 to 1000 nM | 100 to 1000 nM | CC(C)Nc1nc(Nc2ccnc(CC#N)c2)nc(-c2cccc(C(F)(F)F)n2)n1 [Compound 672, {4-[4-Isopropylamino-6-(6-trifluoromethyl-pyridin-2-yl)-[1,3,5]triazin-2-ylamino]-pyridin-2-yl}-acetonitrile] |
| 1000 to 10000 nM | 100 to 1000 nM | 1000 to 10000 nM | CC(C)Nc1nc(Nc2ccccc2Cl)nc(-c2ccccc2)n1 [Compound 162] |
| < 100 nM | 100 to 1000 nM | < 100 nM | CC(C)Nc1nc(Nc2ccnc(C(F)(F)F)c2)nc(-c2cccc(O)c2F)n1 [Compound 633, 2-Fluoro-3-[4-isopropylamino-6-(2-trifluoromethyl-pyridin-4-ylamino)-[1,3,5]triazin-2-yl]-phenol] |
| 100 to 1000 nM | < 100 nM | 100 to 1000 nM | Cc1ccccc1-c1nc(Nc2ccccc2)nc(NC(C)C)n1 [Compound 123] |
| 100 to 1000 nM | 100 to 1000 nM | 100 to 1000 nM | CC(C)Nc1nc(Nc2ccccc2)nc(-c2ncccc2Cl)n1 [Compound 230, 6-(3-chloropyridin-2-yl)-N^2-isopropyl-N^4-phenyl-1,3,5-triazine-2,4-diamine] |
| < 100 nM | < 100 nM | < 100 nM | CC(C)Nc1nc(Nc2cc(F)cc(F)c2)nc(-c2nc(F)ccc2F)n1 [Compound 460, N-(3,5-Difluoro-phenyl)-6-(3,6-difluoro-pyridin-2-yl)-N′-isopropyl-[1,3,5]triazine-2,4-diamine] |
| < 100 nM | 100 to 1000 nM | 100 to 1000 nM | CC(C)(O)CNc1nc(Nc2cnc(F)c(Cl)c2)nc(-c2cccc(C(F)(F)F)n2)n1 [Compound 670, 1-[4-(5-Chloro-6-fluoro-pyridin-3-ylamino)-6-(6-trifluoromethyl-pyridin-2-yl)-[1,3,5]triazin-2-ylamino]-2-methyl-propan-2-ol] |
| 100 to 1000 nM | < 100 nM | 100 to 1000 nM | CC(C)Nc1nc(Nc2ccccc2)nc(-c2ccc(F)cc2F)n1 [Compound 118] |
| < 100 nM | 100 to 1000 nM | < 100 nM | CC(F)(F)c1cc(Nc2nc(NCC3CC3)nc(-c3cccc(C(F)(F)F)n3)n2)ccn1 [Compound 604, N2-(cyclopropylmethyl)-N4-(2-(1,1-difluoroethyl)pyridin-4-yl)-6-(6-(trifluoromethyl)pyridin-2-yl)-1,3,5-triazine-2,4-diamine] |
| < 100 nM | 100 to 1000 nM | 100 to 1000 nM | COc1ncccc1-c1nc(Nc2ccnc(C(F)(F)F)c2)nc(NC(C)C)n1 [Compound 648, N2-isopropyl-6-(2-methoxypyridin-3-yl)-N4-(2-(trifluoromethyl)pyridin-4-yl)-1,3,5-triazine-2,4-diamine] |
| 100 to 1000 nM | 100 to 1000 nM | > 10000 nM | CC(C)(CO)CNc1nc(Nc2ccncc2)nc(-c2ccccc2)n1 [Compound 259, 2,2-dimethyl-3-(4-phenyl-6-(pyridin-4-ylamino)-1,3,5-triazin-2-ylamino)propan-1-ol] |
| 100 to 1000 nM | 100 to 1000 nM | 1000 to 10000 nM | CC(C)Nc1nc(Nc2cccc(CO)c2)nc(-c2ccccc2)n1 [Compound 150] |
| < 100 nM | 100 to 1000 nM | 100 to 1000 nM | CC(C)Nc1nc(Nc2cccc(S(C)(=O)=O)c2)nc(-c2cccc(C(F)(F)F)n2)n1 [Compound 358, N^2-isopropyl-N^4-(3-(methylsulfonyl)phenyl)-6-(6-(trifluoromethyl)pyridin-2-yl)-1,3,5-triazine-2,4-diamine] |
| < 100 nM | 100 to 1000 nM | 100 to 1000 nM | OC1CCCC1Nc1nc(Nc2ccnc(C(F)(F)F)c2)nc(-c2cccc(C(F)(F)F)n2)n1 (stereo not drawn) [Compound 588, 2-((4-(6-(trifluoromethyl)pyridin-2-yl)-6-((2-(trifluoromethyl)pyridin-4-yl)amino)-1,3,5-triazin-2-yl)amino)cyclopentanol] |
| < 100 nM | 100 to 1000 nM | < 100 nM | FC(F)(F)c1cc(Nc2nc(NC3CC4CCC3O4)nc(-c3cccc(C(F)(F)F)n3)n2)ccn1 (stereo not drawn) [Compound 556, N-(7-Oxa-bicyclo[2.2.1]hept-2-yl)-6-(6-trifluoromethyl-pyridin-2-yl)-N′-(2-trifluoromethyl-pyridin-4-yl)-[1,3,5]triazine-2,4-diamine] |
| < 100 nM | 100 to 1000 nM | < 100 nM | CC(F)(F)c1cc(Nc2nc(NCC3CC3)nc(-c3cccc(C(C)(F)F)n3)n2)ccn1 [Compound 610, N2-(cyclopropylmethyl)-6-(6-(1,1-difluoroethyl)pyridin-2-yl)-N4-(2-(1,1-difluoroethyl)pyridin-4-yl)-1,3,5-triazine-2,4-diamine] |
| < 100 nM | < 100 nM | < 100 nM | CC(C)Nc1nc(Nc2cccc(F)c2)nc(-c2nc(C(F)(F)F)cs2)n1 [Compound 475, N-(3-Fluoro-phenyl)-N′-isopropyl-6-(4-trifluoromethyl-thiazol-2-yl)-[1,3,5]triazine-2,4-diamine] |
| 100 to 1000 nM | 100 to 1000 nM | 100 to 1000 nM | COc1ccc(F)c(-c2nc(Nc3ccnc(C(F)(F)F)c3)nc(NC3COC3)n2)c1 [Compound 635, 6-(2-Fluoro-5-methoxy-phenyl)-N-oxetan-3-yl-N′-(2-trifluoromethyl-pyridin-4-yl)-[1,3,5]triazine-2,4-diamine] |
| 100 to 1000 nM | 100 to 1000 nM | 100 to 1000 nM | COc1cc(Cl)cc(-c2nc(Nc3ccnc(C(F)(F)F)c3)nc(NC(C)C)n2)c1 [Compound 655, 6-(3-chloro-5-methoxyphenyl)-N2-isopropyl-N4-(2-(trifluoromethyl)pyridin-4-yl)-1,3,5-triazine-2,4-diamine] |
| 100 to 1000 nM | 100 to 1000 nM | 1000 to 10000 nM | Fc1ccc(Nc2nc(NC3COC3)nc(-c3ccccc3F)n2)cn1 [Compound 626, 6-(2-Fluoro-phenyl)-N-(6-fluoro-pyridin-3-yl)-N′-oxetan-3-yl-[1,3,5]triazine-2,4-diamine] |
| 100 to 1000 nM | < 100 nM | 100 to 1000 nM | CC(C)(C)Nc1nc(Nc2ccccc2)nc(-c2ccccc2)n1 [Compound 112] |
| < 100 nM | < 100 nM | 100 to 1000 nM | c1ccc(Nc2nc(NC3CCOC3)nc(-c3ccccc3)n2)cc1 (stereo not drawn) [Compound 174, N^2,6-diphenyl-N^4-(tetrahydrofuran-3-yl)-1,3,5-triazine-2,4-diamine] |
